Results on six compounds are retold here after US4510085A, “Antihypertensive tetrapeptide amides” (G.D. Searle & Co., priority 1984, dated 1985).

Non-standard residues stand in square brackets, D forms with d. Residues, ends and D or L forms follow the SMILES beside them. No end group written: not given here. *: point of attachment. NH(2-adamantyl) = C1C2CC3CC1CC(C2)C3N*; 2Nal = N[C@@H](Cc1ccc2ccccc2c1)C(=O)O; Sta = CC(C)C[C@H](N)[C@@H](O)CC(=O)O; NEtPhe = CCN[C@@H](Cc1ccccc1)C(=O)O; Isovaleryl = CC(C)CC(=O)*

The subject of test [1] is sodium depleted Rhesus monkeys. The experiment in a line: Rhesus Monkey Blood Pressure Test. The class given is in vivo. How it is done: Rhesus monkeys were sodium depleted by means of a fruit diet in combination with intramuscular furosemide injections (0.5 mg per kg of body weight) given twice daily for four days. This procedure causes blood pressure to become dependent on plasma renin activity. J. Burton, R. J. Cody, Jr., A. J. Herd, and E. Haber, Proc. Natl. Acad. Sci. U. S. A., 77, 5476-5479 (1980). On the fifth day the animals were anesthetized with ketamine (100 mg administered intravenously). The femoral artery was cannulated for blood pressure measurement and a percutaneous venous cannula was inserted for test compound administration. The animals were allowed to recover from anesthesia and were restrained in a transparent plastic chair. […]

The target of the next test is T1, human renin (Homo sapiens, UniProt P00797).
T1 construct: tissue World Health Organization International Laboratory for Biological Standards (National Institute for Biological Standards and Control, London, England); host or cells: human kidney
T1 sequence (P00797 67-406): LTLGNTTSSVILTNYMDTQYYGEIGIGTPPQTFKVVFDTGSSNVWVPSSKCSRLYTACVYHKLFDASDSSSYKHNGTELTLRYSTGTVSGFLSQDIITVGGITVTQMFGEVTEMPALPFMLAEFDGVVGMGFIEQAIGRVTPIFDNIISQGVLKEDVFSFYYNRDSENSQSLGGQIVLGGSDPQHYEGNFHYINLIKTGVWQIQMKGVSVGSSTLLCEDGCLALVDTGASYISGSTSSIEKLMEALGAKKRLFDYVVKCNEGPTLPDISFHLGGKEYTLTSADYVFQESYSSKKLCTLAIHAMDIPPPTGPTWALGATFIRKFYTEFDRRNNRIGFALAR
The experiment in a line: Inhibition of Human Renin. Conditions: angiotensin I formed by radioimmunoassay; considered active if inhibition was greater than 20%. Type of test: biochemical. How it is done:
The renin inhibition activity of the compounds of this invention illustrated in the examples was tested by the following method.
International reference standard human renin, isolated from kidneys, was obtained from the World Health Organization International Laboratory for Biological Standards (National Institute for Biological Standards and Control, London, England). Renin activity is defined in "Goldblatt units" (GU), the quantity that, when injected directly into the blood stream of an unanesthetized dog, raises the direct mean femoral artery blood pressure by 30 mm Hg in about two minutes. E. Haas, L. Lewis, P. Scipione, and T. J. Koshy, Hypertension, 1, 112-117 (1979). Human angiotensinogen was used as an unisolated component of human blood plasma. The enzyme inhibition assay, see K. Poulsen, J. Burton, and E. Haber, Biochemistry, 12, 3877-3882 (1973), involved a two-hour incubation at 37° C. of the following final concentrations of reagents (0.25 ml total volume): 0.1 mGU/ml human renin; 0.05 ml human plasma; 6 mM disodium EDTA; 2.4 mM phenylmethylsulfonyl fluoride and 1.5 mM 8-hydroxyquinoline (angiotensinase inhibitors); 0.4 mg/ml bovine serum albumin; and 0.024 neomycin sulfate in 100 mM Tris-acetate buffer (pH 7.5). The enzymatic reaction was terminated by boiling the mixture for ten minutes. The quantity of angiotensin I formed was determined by radioimmunoassay, using the general method used in the angiotensin I radioimmunoassay kit of New England Nuclear.

A further test deals with Opiate receptor. The experiment in a line: Opiate Receptor Binding. The conditions noted are these: rat brain membrane homogenates, tritium-labeled naloxone. How it is done: Opiate receptor binding of the compounds of this invention illustrated in the examples was tested by the following method.
A 2 ml portion of the homogenate is incubated at 25° with the test compound (10 mcM) and tritium-labeled naloxone (1.0 nM). After sixty minutes, samples were rapidly cooled on ice, collected over glass-fiber filters, washed with cold buffer, and solubilized by incubation with 1.0 ml of NCS tissue solubilizer. Samples were then prepared for counting in a liquid scintillation counter. Specific binding was calculated, with results expressed as percent inhibition at the test dose.

For test [2], the system named is renal-ligated hypertensive rat. The experiment in a line: Renal-ligated Hypertensive Rat Assay. Type of test: in vivo. The conditions noted are these: renal-ligated rats. How it is done:
Male Sprague Dawley rats aged 11 to 15 weeks old were used in this test. […] Test compounds were administered intra-arterially at a dose of 10 mg per kg of body weight, and blood pressure changes were monitored directly at 5, 10, and 15 minutes after injection.

The next test concerns Male Charles River mice. The experiment in a line: Hot-plate Assay. Type of test: in vivo, mouse. The conditions noted are these: subcutaneous, dose active if 50% of the animals showed analgesia. On the procedure: (§1) The in vivo analgesic activity of the compounds of this invention illustrated in the examples was tested using the following hot-plate and writhing assays. Tyrosyl-N-(phenylpropyl)-D-alaninamide, a known analog of enkephalin, is active in these assays.
Male Charles River mice (COBS CD-1(ICR)BR) weighing 20 to 30 grams were used in this assay. Two groups of fourteen mice were placed individually in a restraining cylinder placed on a hot plate kept at 55° (±0.5°). The reaction time for each mouse to lick a foot or jump was measured three times at 20 minute intervals. Mice not responding within fifteen seconds were discarded. Twenty minutes after the last reaction experiment ten mice were given a dose of the test compound and ten were given 0.9% saline (each solution containing approximately 0.09 ml of a 1:1 mixture by volume of propylene glycol and polysorbate 80) subcutaneously. The response times of the animals were measured as before at 30, 60, 90, and 120 minute intervals after this injection. Mice not responding within 30 seconds were removed from the hot plate and given a response time of 30 seconds. […] The ED50 of each active test compound was then calculated. See N. B. Eddy, D. Leimbach, J. Pharmacol. and Exp. Therap., 107, 385-393 (1953).

Test [3] deals with Male Charles River albino mice. Nature of the test: PBQ-Writhing Assay. The class given is in vivo, mouse. Conditions: analgesia if writhes equal to or less than one-half the control median. How it is done:
as §1
Male Charles River albino mice (CD-1(ICR)BR) weighing 20 to 30 grams were used in this assay. Thirty minutes after subcutaneous or intragastric administration (0.1 ml per 10 g of body weight) or fifteen minutes after intracerebroventricular administration (5 mcl total volume), a 0.025% solution of phenylbenzoquinone (PBQ) was injected intraperitoneally (0.1 ml per 10 g of body weight). Five minutes later each mouse was placed in a glass beaker and the number of writhes occurring in the next ten minutes was counted. (A writhe consists of dorsoflexion of the back, extension of the hindlimbs, and strong contraction of the abdominal musculature.) The test compound was considered to have produced analgesia in a mouse if the number of writhes elicited by PBQ was equal to or less than one-half the median number of writhes recorded for the saline-treated control group of mice that day. Results were expressed as the number of mice out of a possible ten in which the test compound produced analgesia. […]

“PHPFHFFVYK [RIP, prolylhistidylprolylphenylalanylhistidylphenylalanylphenylalanylvalyltyros yllysine]”: the mean blood pressure entry in test [1] (1.0 mg per kg) is “significantly lowered”.
As to `CCN[C@@H](Cc1ccccc1)C(=O)N[C@H](CCSC)C(=O)NCC(=O)N[C@@H](Cc1ccccc1)C(=O)NC1C2CC3CC(C2)CC1C3.Cl` (stereo partly drawn) [Example 15, N^α -ethyl-L-phenylalanyl-D-methionylglycyl-N-(2-adamantyl)-L-phenylalaninamide hydrochloride] (H-[NEtPhe][dM]GF-{NH(2-adamantyl)}), the renin inhibition activity result at human renin is given as “possess renin inhibition activity”. Moreover, the “opiate receptor binding relative to prior art compounds of U.S. Pat. No. 4,273,704” value with Opiate receptor is on record as “significantly lower opiate receptor binding”.
Regarding `C[C@H](CS)C(=O)N1CCC[C@H]1C(=O)O` [captopril], the mean blood pressure entry in test [1] (0.1 mg per kg) is listed as “significantly lowered”.
In the case of `CC(C)CC(=O)N[C@H](C(=O)N[C@H](C(=O)N[C@@H](CC(C)C)[C@@H](O)CC(=O)N[C@@H](C)C(=O)N[C@@H](CC(C)C)[C@@H](O)CC(=O)O)C(C)C)C(C)C` [Pepstatin] (Isovaleryl-VV[Sta]A[Sta]-OH), the renin inhibition activity entry at human renin is reported as “active”. The plasma renin activity result in test [2] is “significantly reduced”. Also, in test [2] (intra-arterial administration, significance P≤0.05), the “mean arterial blood pressure” value is given as “significantly reduced”.
With `CSCC[C@@H](NC(=O)[C@@H](N)Cc1ccc2ccccc2c1)C(=O)NCC(=O)N[C@@H](Cc1ccccc1)C(=O)NC1C2CC3CC(C2)CC1C3.Cl` (stereo partly drawn) [Example 29, 3-(2-naphthalenyl)-L-alanyl-D-methionylglycyl-N-(2-adamantyl)-L-phenylalaninamide hydrochloride] (H-[2Nal][dM]GF-{NH(2-adamantyl)}), on human renin, the renin inhibition activity result is “possess renin inhibition activity”. In addition, the “opiate receptor binding relative to prior art compounds of U.S. Pat. No. 4,273,704” value with Opiate receptor was “significantly lower opiate receptor binding”.
Consider `C[C@@H](NC(=O)[C@@H](N)Cc1ccc(O)cc1)C(=O)NCCCc1ccccc1` [Tyrosyl-N-(phenylpropyl)-D-alaninamide], for which the “analgesic activity, hot-plate” value in the test on Male Charles River mice is recorded as “active”. Moreover, the “analgesic activity, PBQ writhing” value in test [3] is “active”.
